Source: a melting point compilation (Tetko et al.; mined from patent text by program, amines drawn as free bases though some values may be those of a salt)

Structure (SMILES) | melting point
Cc1ccccc1C(=O)Nc1ccc(-n2nc(C(F)(F)F)cc2C2CC2)c(F)c1 | 142 to 144 °C
FC(F)(F)c1n[nH]c(-c2nc3ccccc3[nH]2)n1 | 247 °C
C[Si](C)(C)CCOC(=O)c1cccc(NC(=O)NCC(=O)O)c1 | 173 °C
CC(C)Oc1cc(NC(=O)CC(CCCl)C(F)(F)F)c(F)cc1Cl (centres undefined) | 57 to 63 °C
CC(C)(C)NS(=O)(=O)c1cc2c(s1)S(=O)(=O)NCC2O (centres undefined) | 144 to 147 °C
CC1=CC(O)C(OC(=O)c2ccc(Cl)cc2)C(C)(C)CC1=O (centres undefined) | 114 to 116 °C
CS(=O)(=O)c1ccc(C2=C(c3cccc(F)c3)CN(C3CC3)C2=O)cc1 | 179 to 180 °C
CCCCN1C(=O)C2(COc3cc4c(cc32)OCO4)c2ccccc21 (centres undefined) | 119 to 120 °C
O=C(NN1CCN(C(=O)C=Cc2ccccc2)CC1)c1ccc(F)cc1 | 235 to 240 °C
C#CCN(c1ccc(C(=O)OC(C)(C)C)cc1)C1CCc2cc3nc(C)[nH]c(=O)c3cc21 (racemic) | 244 to 246 °C
CC1(C)CC(=O)C(C(=O)c2ccc(S(C)(=O)=O)cc2[N+](=O)[O-])C(=O)C1 | 156 to 158 °C
CCC[C@@H]([C@@H](CC(C)C)C(=O)N[C@@H](CCCNCN=N[N+](=O)[O-])C(=O)Nc1nccs1)N(O)C=O | 130 to 136 °C
C#CCn1c(=O)n(C)c2ccccc21 | 110 to 112 °C
Brc1ccc(-c2ccc(-c3ccc(Br)cc3)o2)cc1 | 198 to 199 °C
CSCc1cc(=O)c2ccccc2o1 | 77 to 79 °C
COc1ccc(-c2cc(F)c(F)cc2-c2ccc(S(N)(=O)=O)cc2)cc1C | 120 to 122 °C
CN(C)c1ccc2c(c1)OCCC2=O | 109 to 120 °C
CC(C)c1[nH]n(-c2c(Cl)cc(Cl)cc2Cl)c2nc(Cc3ccc(N(C(=O)OC(C)(C)C)C(=O)[C@@H]4CCCN4)cc3)nc(=O)c1-2 | 225 to 226 °C
O=C1C(=O)c2ccccc2C2=C1SCC1(CCN(S(=O)(=O)c3ccc(Cl)c(Cl)c3)CC1)O2 | 275 to 276 °C
CCCOC(=O)C(=C1SC=CS1)S(=O)(=O)C(C)C | 78 to 79 °C
CCCc1[nH]cnc1C=O | 120 to 124 °C
CC(Cc1cc(F)cc2cc(Cl)oc12)NC(=O)OC(C)(C)C (centres undefined) | 133 to 135 °C
CS(=O)(=O)c1ccc(-c2cnn(-c3ccc(C(=O)n4cccc4)cc3)c(=O)c2-c2ccc(F)cc2)cc1 | 229 to 231 °C
O=C(O)CC1=CSCSC1 | 97 °C
O=C(O)CN1C(=O)C(=Cc2ccc(O)cc2)SC1=S | > 300 °C
CSc1c(C(=O)O)ccc(Br)c1F | 126 to 129 °C

Results, then the compound that gave them:

melting point | Structure (SMILES)
175 to 178 °C | CC1(C)CC(n2cc(C#N)c3ccccc32)c2cc(C#N)ccc2O1 (centres undefined)
129 to 130 °C | CN(C)c1ccc([N+](=O)[O-])c(C(OC(=O)C(Cl)(Cl)Cl)c2ccccc2)c1[N+](=O)[O-] (centres undefined)
135 to 138 °C | CCc1nnc2c(N(CC)CC)nc3ccc(OC)cc3n12
89 to 91 °C | O=C1CC(O)CC(/C=C/c2ccccc2-c2ccccc2)O1 (centres undefined)
119 to 121 °C | N#CN1CCC(c2nn(-c3ccccc3F)c3ccccc23)CC1
246 °C | N#Cc1c(N2CCN(C(=O)c3cccs3)CC2)c2cc(F)ccc2n(Cc2ccccc2)c1=O
222 to 224 °C | O=C(C=C(c1ccccc1)c1ccccc1)Nc1ccc(C(=O)O)cc1
211 to 213 °C | O=C1/C(=C/c2cccs2)CNc2cc(OCCn3ccnc3)ccc21
210 to 212 °C | CCn1c(=O)ccc2cnc(Nc3cccc(F)c3)nc21
148 to 150 °C | O=C(NCc1cncs1)c1ccnc(N2CCN(Cc3ccc(F)cc3)C2=O)c1
102 °C | COc1ccccc1NC(=O)c1cccc(CO)c1
144 to 146 °C | Cn1cnc2c(N(Cc3ccccc3)Cc3ccccc3)nc(Cl)nc21
150 to 152 °C | Clc1nnc(Cc2ccc(OCc3ccccc3)cc2)c2ccccc12
